Experimental data taken from patent US9724318B2, “Compositions for improving mental concentration” (priority 2001, dated 2017).

Experiment: acute toxic test using a mouse, oral administration
Type: in vivo
Conditions: oral administration at 5 g/kg
Description: The theanine used in the present invention has high safety. […] Also, especially L-theanine is known as a main component of umami (tastiness) of the green tea, and is also used as a food additive giving umami, without the limitation of its added amount under the regulation for food hygiene. Moreover, contrary to the conventional drugs, since there is no adverse action by theanine at all, the mind-concentration is safely and effectively achieved according to the composition of the present invention, whereby working efficiency, learning efficiency or the like, or sports performance can be improved.

Compound: CCNC(=O)CC[C@H](N)C(=O)O [theanine, γ-glutamyl ethylamide]
- abnormalities in the general states, weight and the like: no abnormalities
- cases of death in acute toxic test: no cases of death
